target: T1, Human TRPC6 (Homo sapiens, UniProt Q9Y210); assay: Evaluation of TRPC6 channel inhibitory activity (1), FLIPR Calcium 5 Assay Kit, OAG stimulation (Compound Nos. 1-1293); type: cell-based; conditions: Human TRPC6 stably-expressing cells, OAG 30 μM, FLIPR Calcium 5 Assay Kit; read-out: Inhibitory activity (pIC50 class) (converted)
T1 construct: expressed in transfected cells
T1 sequence (Q9Y210 1-931): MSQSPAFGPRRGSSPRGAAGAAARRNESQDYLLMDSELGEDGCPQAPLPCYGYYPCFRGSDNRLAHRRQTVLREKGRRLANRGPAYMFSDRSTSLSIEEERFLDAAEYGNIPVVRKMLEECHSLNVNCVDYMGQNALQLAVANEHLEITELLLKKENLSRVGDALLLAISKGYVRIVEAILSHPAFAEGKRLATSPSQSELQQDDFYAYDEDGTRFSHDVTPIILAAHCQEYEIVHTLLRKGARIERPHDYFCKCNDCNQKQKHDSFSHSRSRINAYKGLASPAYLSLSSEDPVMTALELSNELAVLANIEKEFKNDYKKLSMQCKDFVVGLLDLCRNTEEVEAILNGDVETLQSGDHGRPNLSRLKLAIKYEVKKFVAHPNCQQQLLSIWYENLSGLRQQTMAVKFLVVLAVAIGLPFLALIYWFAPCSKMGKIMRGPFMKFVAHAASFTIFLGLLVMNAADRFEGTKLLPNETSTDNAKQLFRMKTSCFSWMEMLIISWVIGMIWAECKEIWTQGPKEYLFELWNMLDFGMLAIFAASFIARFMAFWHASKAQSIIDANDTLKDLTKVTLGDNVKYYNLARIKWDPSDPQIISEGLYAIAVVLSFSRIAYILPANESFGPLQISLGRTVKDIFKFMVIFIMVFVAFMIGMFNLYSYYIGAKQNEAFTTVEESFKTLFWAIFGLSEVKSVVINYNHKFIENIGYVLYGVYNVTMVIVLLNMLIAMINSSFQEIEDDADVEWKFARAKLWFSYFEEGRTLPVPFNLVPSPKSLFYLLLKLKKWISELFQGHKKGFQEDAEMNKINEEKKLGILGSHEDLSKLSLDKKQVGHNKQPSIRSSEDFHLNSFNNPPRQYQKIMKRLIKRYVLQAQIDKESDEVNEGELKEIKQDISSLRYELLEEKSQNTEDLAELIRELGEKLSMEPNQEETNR
Procedure, shortened: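 Stable human TRPC6 line; fluorescent Ca2+ dye loading, then 20 min compound exposure before 30 μM OAG trigger. Peak-minus-baseline signal converted to % inhibition against untreated and unstimulated wells; potency given as pIC50 band.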

Compound	IC50 [nM]
Cc1nc(Oc2cc(C#N)ccc2-n2cc([C@@H](O)CN)cn2)cc(N2CCCC(C)(C)C2)n1 [Compound 235, 4-[4-[(1R)-2-amino-1 hydroxyethyl]pyrazol-1-yl]-3-[6-(3,3-dimethylpiperidin-1-yl)-2-methylpyrimidin-4-yl]oxybenzonitrile]	10 to 1000
Cc1nc(Oc2cc(C#N)ccc2-n2cc([C@@H](O)CN)cn2)cc(N2CC(F)(F)C2)n1 [Compound 236, 4-[4-[(1R)-2-amino-1-hydroxyethyl]pyrazol-1-yl]-3-[6-(3,3-difluoroazetidin-1-yl)-2-methylpyrimidin-4-yl]oxybenzonitrile]	10 to 1000
Cn1nc(C2CCC2)cc1Oc1cc(C#N)ccc1-c1ccc(CCN)cn1 [Compound 237, 4-[5-(2-aminoethyl)pyridin-2-yl]-3-(5-cyclobutyl-2-methylpyrazol-3-yl)oxybenzonitrile]	< 10
Cn1nc(C2CCC2)cc1Oc1cc(C#N)ccc1-c1ncc(C(O)CN)s1 (stereo not drawn) [Compound 238, 4-[5-(2-amino-1-hydroxyethyl)-1,3-thiazol-2-yl]-3-(5-cyclobutyl-2-methylpyrazol-3-yl)oxybenzonitrile]	< 10
Cc1nc(Oc2cc(C#N)ccc2-c2cnn(C3CCNCC3)c2)cc(N2CCOCC2)n1 [Compound 239, 3-(2-methyl-6-morpholin-4-ylpyrimidin-4-yl)oxy-4-(1-piperidin-4-ylpyrazol-4-yl)benzonitrile]	> 1000
Cc1nc(Oc2cc(C#N)ccc2-c2ccc(C[C@H](N)C(N)=O)cc2)cc(-c2ccccc2)n1 [Compound 240, (2S)-2-amino-3-[4-[4-cyano-2-(2-methyl-6-phenylpyrimidin-4-yl)oxyphenyl]phenyl]propanamide]	10 to 1000
Cc1cc(Oc2cc(C#N)ccc2-n2cc(C(O)CN)cn2)cc(N2CCOCC2)n1 (stereo not drawn) [Compound 241, 4-[4-(2-amino-1-hydroxyethyl)pyrazol-1-yl]-3-(2-methyl-6-morpholin-4-ylpyridin-4-yl)oxybenzonitrile]	< 10
COCc1nn(C)c(Oc2cc(C#N)ccc2-c2ccc(CCN)cc2)c1C [Compound 242, 4-[4-(2-aminoethyl)phenyl]-3-[5-(methoxymethyl)-2,4-dimethylpyrazol-3-yl]oxybenzonitrile]	> 1000
CC(C)Cc1nn(C)c(Oc2cc(C#N)ccc2-c2ccc(CCN)cc2)c1C(C)C [Compound 243, 4-[4-(2-aminoethyl)phenyl]-3-[2-methyl-5-(2-methylpropyl)-4-propan-2-ylpyrazol-3-yl]oxybenzonitrile]	> 1000
Cc1nc(Oc2cc(C#N)ccc2-n2cc([C@@H](O)CNC3COC3)cn2)cc(-c2ccccc2)n1 [Compound 244, 4-[4-[(1R)-1-hydroxy-2-(oxetan-3-ylamino)ethyl]pyrazol-1-yl]-3-(2-methyl-6-phenylpyrimidin-4-yl)oxybenzonitrile]	10 to 1000
Cn1nc(COC2CCCC2)cc1Oc1cc(C#N)ccc1-c1ccc(CCN)cn1 [Compound 245, 4-[5-(2-aminoethyl)pyridin-2-yl]-3-[5-(cyclopentyloxymethyl)-2-methylpyrazol-3-yl]oxybenzonitrile]	10 to 1000
N#Cc1ccc(-c2ncc(C(O)CN)s2)c(Oc2cnnc(-c3ccccc3)c2)c1 (stereo not drawn) [Compound 246, 4-[5-(2-amino-1-hydroxyethyl)-1,3-thiazol-2-yl]-3-(6-phenylpyridazin-4-yl)oxybenzonitrile]	< 10
Cc1nc(Oc2cc(C#N)ccc2-c2ccc(CC(C)(C)N)cc2)cc(N2CCOCC2)n1 [Compound 247, 4-[4-(2-amino-2-methylpropyl)phenyl]-3-(2-methyl-6-morpholin-4-ylpyrimidin-4-yl)oxybenzonitrile]	< 10
Cn1nc(-c2ccccc2)cc1Oc1cc(C#N)ccc1-c1ncc(C(O)CN)cn1 (stereo not drawn) [Compound 248, 4-[5-(2-amino-1-hydroxyethyl)pyrimidin-2-yl]-3-(2-methyl-5-phenylpyrazol-3-yl)oxybenzonitrile]	< 10

More lines, now with the values ahead:

IC50 [nM]	Compound
< 10	Cn1nc(-c2ccccn2)cc1Oc1cc(C#N)ccc1-c1ccc(C(O)CN)cn1 (stereo not drawn) [Compound 249, 4-[5-(2-amino-1-hydroxyethyl)pyridin-2-yl]-3-(2-methyl-5-pyridin-2-ylpyrazol-3-yl)oxybenzonitrile]
< 10	Cc1cc(Oc2cc(C#N)ccc2-c2ncc(CCN)cn2)cc(N2CCOCC2)n1 [Compound 250, 4-[5-(2-aminoethyl)pyrimidin-2-yl]-3-(2-methyl-6-morpholin-4-ylpyridin-4-yl)oxybenzonitrile]
> 1000	COC1CCN(c2cc(Oc3cc(C#N)ccc3-n3cc([C@@H](O)CN)cn3)nc(C)n2)CC1 [Compound 251, 4-[4-[(1R)-2-amino-1-hydroxyethyl]pyrazol-1-yl]-3-[6-(4-methoxypiperidin-1-yl)-2-methylpyrimidin-4-yl]oxybenzonitrile]
> 1000	Cc1nc(Oc2cc(C#N)ccc2-n2cc([C@@H](O)CN)cn2)cc(N2CCC(F)(F)C2)n1 [Compound 252, 4-[4-[(1R)-2-amino-1-hydroxyethyl]pyrazol-1-yl]-3-[6-(3,3-difluoropyrrolidin-1-yl)-2-methylpyrimidin-4-yl]oxybenzonitrile]
< 10	Cc1nc(Oc2cc(C#N)ccc2-n2cc([C@@H](O)CN)cn2)cc(N2CCC(C(F)(F)F)CC2)n1 [Compound 253, 4-[4-[(1R)-2-amino-1-hydroxyethyl]pyrazol-1-yl]-3-[2-methyl-6-[4-(trifluoromethyl)piperidin-1-yl]pyrimidin-4-yl]oxybenzonitrile]
< 10	Cc1cc(Oc2cc(C#N)ccc2-c2ccc(CCN)cn2)cc(N2CCCC2)n1 [Compound 254, 4-[5-(2-aminoethyl)pyridin-2-yl]-3-(2-methyl-6-pyrrolidin-1-ylpyridin-4-yl)oxybenzonitrile]
10 to 1000	CC(C)OCc1cc(Oc2cc(C#N)ccc2-c2ccc(CCN)cn2)n(C)n1 [Compound 255, 4-[5-(2-aminoethyl)pyridin-2-yl]-3-[2-methyl-5-(propan-2-yloxymethyl)pyrazol-3-yl]oxybenzonitrile]
10 to 1000	Cc1nc(Oc2cc(C#N)ccc2-n2cc([C@@H](O)CN)cn2)cc(N2CCC(F)(F)CC2)n1 [Compound 256, 4-[4-[(1R)-2-amino-1-hydroxyethyl]pyrazol-1-yl]-3-[6-(4,4-difluoropiperidin-1-yl)-2-methylpyrimidin-4-yl]oxybenzonitrile]
10 to 1000	Cc1nc(Oc2cc(C#N)ccc2-n2cc([C@@H](O)CN)cn2)cc(N2CCCC(F)(F)C2)n1 [Compound 257, 4-[4-[(1R)-2-amino-1-hydroxyethyl]pyrazol-1-yl]-3-[6-(3,3-difluoropiperidin-1-yl)-2-methylpyrimidin-4-yl]oxybenzonitrile]
< 10	Cc1cc(Oc2cc(C#N)ccc2-c2ccc(CCN)cn2)cc(-c2ccccn2)n1 [Compound 258, 4-[5-(2-aminoethyl)pyridin-2-yl]-3-(2-methyl-6-pyridin-2-ylpyridin-4-yl)oxybenzonitrile]
10 to 1000	Cc1nc(Oc2cc(C#N)ccc2-n2cc(CCN)cn2)cc(N2CCOCC2)n1 [Compound 259, 4-[4-(2-aminoethyl)pyrazol-1-yl]-3-(2-methyl-6-morpholin-4-ylpyrimidin-4-yl)oxybenzonitrile]
< 10	CCCc1cc(Oc2cc(C#N)ccc2-c2ncc(CCN)cn2)n(C)n1 [Compound 260, 4-[5-(2-aminoethyl)pyrimidin-2-yl]-3-(2-methyl-5-propylpyrazol-3-yl)oxybenzonitrile]
< 10	CC(C)c1cc(Oc2cc(C#N)ccc2-c2ncc(CCN)cn2)n(C)n1 [Compound 261, 4-[5-(2-Aminoethyl)pyrimidin-2-yl]-3-(2-methyl-5-propan-2-ylpyrazol-3-yl)oxybenzonitrile]
< 10	Cc1cc(Oc2cc(C#N)ccc2-c2ncc(CCN)cn2)cc(N2CCCC2)n1 [Compound 262, 4-[5-(2-aminoethyl)pyrimidin-2-yl]-3-(2-methyl-6-pyrrolidin-1-ylpyridin-4-yl)oxybenzonitrile]
10 to 1000	Cc1nc(Oc2cc(C#N)ccc2-c2cnc(C(O)CN)s2)cc(-c2ccccc2)n1 (stereo not drawn) [Compound 263, 4-[2-(2-amino-1-hydroxyethyl)-1,3-thiazol-5-yl]-3-(2-methyl-6-phenylpyrimidin-4-yl)oxybenzonitrile]
< 10	Cn1nc(C(F)(F)F)cc1Oc1cc(C#N)ccc1-c1ccc(CCN)cn1 [Compound 264, 4-[5-(2-aminoethyl)pyridin-2-yl]-3-[2-methyl-5-(trifluoromethyl)pyrazol-3-yl]oxybenzonitrile]
